Test results published in patent US20250262209A1, “TREATMENT OF GASTROINTESTINAL DISEASES” (Aclipse Two, Inc., priority 2022, published 2025).

Legend:
[1] = tested on: TNF-α, IL-10, CCL2, and IL-1β gene expression in colon; assay: QT-PCR gene expression in colon of the DSS-induced IBD model; assay type: in vivo, mice
Experimental: Animals were euthanized by CO2 at the end of study. Colon length and colon weight (cecum is not included) were recorded, and macroscopic changes were scored based on Table 2. The colon was cleaned using saline, and all feces were removed before weight measurement. The middle part of colon was collected in cassette and fixed in 10% neutral buffered formalin (NBF) for H&E and PAS staining. For left colon, mucosal from colon surface was removed and then snap frozen in liquid nitrogen and store at −80° C. for QT-PCR analysis of TNF-α, IL-10, CCL2, and IL-1β. QT-PCR primers were purchased from Sangon Biotech Co., Ltd.
Treatment of Tissue before RNA Extraction are as follows. • (a) Remove mucosal from colon surface. Cut colon tissue into small pieces on ice. • (b) Weight out the tissue no more than 30 mg and transfer the tissue into a lysing matrix D tube. Totally 700 µL Trizol was added in the tissue and lysing matrix D immediately. • (c) Put the lysing matrix D tubes which contain tissue, Lysing matrix, and 700 μL Trizol into the FastPrep™-24 Sample Preparation System. • (d) Set at speed 6 and grind for 2 min • (e) 140 μL chloroform was added into the tubes, shake the tubes vigorously by vortex for 15 seconds. Incubate at room temperature for 2 min. • (f) 12000 rpm centrifuge for 10 min at 4° C., • (g) Pipet the supernatant to 96 well 2.2 mL deep well plate
RNA Sample Preparation procedure is as follows. • (a) 600 μL Binding Buffer was added into column 1 and 7 • (b) 600 μL DNase Stop Buffer was added into column 2 I 8 • (c) 600 μL Wash Buffer was added into column 3, 4 and 9, 10 • (d) 100 μL Elution Buffer was added into column 5Id 11 • (e) 190 μL DEPC water and 10 μL MagaBio® Reagent was added into column 6 and 12 • (f) Transfer 300 μL of the colorless, upper phase containing the RNA to column 1 and 7 • (g) Put the test plate in nucleic acid purifier • (h) Set the instrument as below in Table 3.
The elution was transferred into a clean nuclease-free centrifuge tube and the RNA sample was store at −80° C.
To use the Takara Prime Script™ Reverse Transcription System, Mix and briefly centrifuge each component before use. Combine the following component volume as in Table 4.
• (a) Store on ice until reverse transcription mix is added. Centrifuge 10 seconds in a micro-centrifuge. Heat in a 42° C. heat block for 2 minutes, 4° C. immediately chill in ice water for at least 5 minutes. • (b) Prepare the reverse transcription reaction mix, 10 μL for each cDNA reaction. Combine on ice, in the order listed. Component volume of step b) (Table 5).
• (c) Combine 20 μL of reverse transcription mix, Centrifuge 10 seconds in a microcentrifuge. • (d) Anneal in a heat block at 37° C. for 15 min, 85° C. for 5 sec, 4° C. save on S100™ Thermal Cycler. • (e) Aliquot the cDNA sample and store at −20° C.
• (a) Make qPCR reaction mixture in one tube based on assay number and replicas. • (b) Prepare primers and master mix mixture according to manufacturer's instructions. And aliquot 9 μL of mixture into each well of the 384 qPCR plate. • (c) Transfer 1 μL of cDNA into each well of a 384 qPCR plate which already contain 9 μL of mixture. Briefly centrifuge the plate. • (d) Seal the plate • (e) Mix thoroughly, spin briefly • (f) Run the PCR Reaction • (g) Place the reaction plate in the instrument. • (h) Set the Applied Biosystems ViiA™ 7 cycling conditions as in Table 6.
Data were expressed as mean±SD. The 2-ΔΔCT method was used to analyze the mRNA expression level. The results were normalized for RNA input using glyceraldehydes-3-phosphate dehydrogenase (GAPDH or other internal controls). Statistical analysis was performed using, one-way ANOVA followed if significant by post-hoc Dunnett test. […] The difference was considered significant when p<0.05

[2] = tested on: monocytes from PBMC, M1-to-M2 macrophage repolarization; assay: M1-to-M2 macrophage repolarization assay; assay type: cell-based, human
Text: The purpose of this study was to evaluate the effects of lobeglitazone and other thiazolidinediones on M1-to-M2 macrophage repolarization. The test articles and vehicles used in this study were lobeglitazone sulfate, pioglitazone HCl, and rosiglitazone.
M1-to-M2 macrophage repolarization assay timeline were as follows in Table 13.
Drug concentrations tested in the M1 differentiation assay are as in Table 14.
• (1) Isolate monocytes from PBMC using StemCell® monocyte isolation kit. • (2) Count cell and adjust the cell density to 0.5×10^6 cells/ml with fresh complete differentiation medium (add 10 μl M-CSF stock (100 μg/ml) 10 ml cell mixture to a final concentration of 50 ng/ml). • (3) Seed isolated monocyte 100 μL per well on 96-well plate. • (4) On day 4, add additional 100 μl medium containing M-CSF • (5) On day 6, add stimulator at 5× final concentration (200 μL medium in each well) to a final concentration of 50 ng/ml. • (6) On day 8, remove medium and replenish with 200 μL cytokine free medium, then add test compound (final concentration in μM) and incubate for 4 days. • (7) On day 12, add IL-4 and incubate for 2 days (add 50 μL of 100 ng/ml IL-4 to each well containing 200 μL medium to reach 20 ng/ml). • (8) On day 14, spin down the plates at 300×g for 5 min and collect the supernatant for cytokine quantification. • (9) M1 and M2 associated macrophage cytokines of interest are as follows in Table 15.
The cells are then collected for flow analysis of viability/CD11c/CD163/CD206.
Cell surface marker CD163, CD11c, and CD206 were applied to characterize M2 repolarization via flow cytometry. Controls included No stain and staining with all surface marker antibodies to confirm the optimization of gating strategy.

[3] = 0.36 mg/kg PO QD 10 days, vs model
[4] = 1.20 mg/kg PO QD 10 days, vs model
[5] = 3.61 mg/kg PO QD 10 days, vs model

COc1ccc(Oc2cc(N(C)CCOc3ccc(CC4SC(=O)NC4=O)cc3)ncn2)cc1 (stereo not shown) [lobeglitazone, 5-(4-(2-((6-(4-Methoxyphenoxy)pyrimidin-4-yl)(methyl)amino)ethoxy)benzyl)thiazolidine-2,4-dione]
CCL2 gene expression levels in colon [1, 3]: led to decreases | IL-1B gene expression levels in colon [1, 3]: significantly decreased | TNF-α gene expression levels in colon [1, 3]: significantly decreased | CCL2 gene expression levels in colon [1, 4]: led to decreases | IL-1B gene expression levels in colon [1, 4]: significantly decreased | TNF-α gene expression levels in colon [1, 4]: significantly decreased | CCL2 gene expression levels in colon [1, 5]: significantly decreased | IL-1β gene expression levels in colon [1, 5]: did not change | TNF-α gene expression levels in colon [1, 5]: didn't show obvious changes | IL-10 gene expression levels in colon ([1]; lobeglitazone groups (0.36, 1.20, 3.61 mg/kg PO QD 10 days)): did not change significantly | GI inflammation, as evidenced by the gene expression data ([1]; mouse DSS model, 0.36 and 1.20, and 3.61 mg/kg): significantly decreased | concentration at which M1-to-M2 repolarization was promoted (M2 macrophage surface markers, flow cytometry) ([2]; CD163, CD11c, CD206, lowest concentration with effect): ~0.05 µM | concentration showing remarkable promotion of MDC expression ([2]; cytokine analysis (MSD), day 14 supernatant): 0.1 µM
